Results from ChEMBL document CHEMBL4414672, “Synthesis of certain benzothieno[3,2-d]pyrimidine derivatives as a selective SIRT2 inhibitors” (Eur J Med Chem, 2020).

Key:
Format in all cases: functional
[1] = system: SF-268; assay: Growth inhibition of human SF268 cells at 10^-5 M incubated for 48 hrs by sulforhodamine B assay; details: SF-268, 48 h, read-out: GI
[2] = system: MDA-MB-231; assay: Growth inhibition of human MDA-MB-231 cells at 10^-5 M incubated for 48 hrs by sulforhodamine B assay; details: MDA-MB-231, 48 h, read-out: GI
[3] = system: ACHN; assay: Growth inhibition of human ACHN cells at 10^-5 M incubated for 48 hrs by sulforhodamine B assay; details: read-out: GI
[4] = system: NCI-H226; assay: Growth inhibition of human NCI-H226 cells at 10^-5 M incubated for 48 hrs by sulforhodamine B assay; details: NCI-H226, 48 h, read-out: GI
[5] = system: HT-29; assay: Growth inhibition of human HT-29 cells at 10^-5 M incubated for 48 hrs by sulforhodamine B assay; details: HT-29, 48 h, read-out: GI
[6] = system: HOP-92; assay: Growth inhibition of human HOP92 cells at 10^-5 M incubated for 48 hrs by sulforhodamine B assay; details: HOP-92, 48 h, read-out: GI
[7] = system: UACC-257; assay: Growth inhibition of human UACC257 cells at 10^-5 M incubated for 48 hrs by sulforhodamine B assay; details: UACC-257, 48 h, read-out: GI
[8] = system: NCI-H322M; assay: Growth inhibition of human NCI-H322M cells at 10^-5 M incubated for 48 hrs by sulforhodamine B assay; details: read-out: GI
[9] = system: SK-MEL-5; assay: Growth inhibition of human SK-MEL-5 cells at 10^-5 M incubated for 48 hrs by sulforhodamine B assay; details: SK-MEL-5, 48 h, read-out: GI
[10] = system: SN12C; assay: Growth inhibition of human SN12C cells at 10^-5 M incubated for 48 hrs by sulforhodamine B assay; details: read-out: GI
[11] = system: PC-3; assay: Growth inhibition of human PC3 cells at 10^-5 M incubated for 48 hrs by sulforhodamine B assay; details: PC-3, 48 h, read-out: GI
[12] = system: MDA-MB-468; assay: Growth inhibition of human MDA-MB-468 cells at 10^-5 M incubated for 48 hrs by sulforhodamine B assay; details: MDA-MB-468, 48 h, read-out: GI
[13] = system: SNB-75; assay: Growth inhibition of human SNB75 cells at 10^-5 M incubated for 48 hrs by sulforhodamine B assay; details: SNB-75, 48 h, read-out: GI
[14] = system: RXF 393; assay: Growth inhibition of human RXF393 cells at 10^-5 M incubated for 48 hrs by sulforhodamine B assay; details: RXF 393, 48 h, read-out: GI
[15] = system: UACC-62; assay: Growth inhibition of human UACC62 cells at 10^-5 M incubated for 48 hrs by sulforhodamine B assay; details: UACC-62, 48 h, read-out: GI
[16] = system: SK-OV-3; assay: Growth inhibition of human SKOV3 cells at 10^-5 M incubated for 48 hrs by sulforhodamine B assay; details: SK-OV-3, 48 h, read-out: GI
[17] = system: BT-549; assay: Growth inhibition of human BT549 cells at 10^-5 M incubated for 48 hrs by sulforhodamine B assay; details: BT-549, 48 h, read-out: GI
[18] = system: A549; assay: Growth inhibition of human A549/ATCC cells at 10^-5 M incubated for 48 hrs by sulforhodamine B assay; details: A549, 48 h, read-out: GI
[19] = system: Hs-578T; assay: Growth inhibition of human Hs 578T cells at 10^-5 M incubated for 48 hrs by sulforhodamine B assay; details: read-out: GI
[20] = system: Malme-3M; assay: Growth inhibition of human MALME-3M cells at 10^-5 M incubated for 48 hrs by sulforhodamine B assay; details: read-out: GI
[21] = system: CAKI-1; assay: Growth inhibition of human Caki1 cells at 10^-5 M incubated for 48 hrs by sulforhodamine B assay; details: CAKI-1, 48 h, read-out: GI
[22] = system: M14; assay: Growth inhibition of human M14 cells at 10^-5 M incubated for 48 hrs by sulforhodamine B assay; details: M14, 48 h, read-out: GI
[23] = system: K562; assay: Growth inhibition of human K562 cells at 10^-5 M incubated for 48 hrs by sulforhodamine B assay; details: K562, 48 h, read-out: GI
[24] = system: OVCAR-8; assay: Growth inhibition of human OVCAR8 cells at 10^-5 M incubated for 48 hrs by sulforhodamine B assay; details: OVCAR-8, 48 h, read-out: GI
[25] = system: OVCAR-5; assay: Growth inhibition of human OVCAR5 cells at 10^-5 M incubated for 48 hrs by sulforhodamine B assay; details: OVCAR-5, 48 h, read-out: GI
[26] = system: OVCAR-3; assay: Growth inhibition of human OVCAR3 cells at 10^-5 M incubated for 48 hrs by sulforhodamine B assay; details: OVCAR-3, 48 h, read-out: GI
[27] = system: NCI-H23; assay: Growth inhibition of human NCI-H23 cells at 10^-5 M incubated for 48 hrs by sulforhodamine B assay; details: NCI-H23, 48 h, read-out: GI
[28] = system: NCI/ADR-RES; assay: Growth inhibition of human NCI/ADR-RES cells at 10^-5 M incubated for 48 hrs by sulforhodamine B assay; details: read-out: GI
[29] = system: U-251; assay: Growth inhibition of human U251 cells at 10^-5 M incubated for 48 hrs by sulforhodamine B assay; details: U-251, 48 h, read-out: GI
[30] = system: A498; assay: Growth inhibition of human A498 cells at 10^-5 M incubated for 48 hrs by sulforhodamine B assay; details: A498, 48 h, read-out: GI
[31] = system: TK-10; assay: Growth inhibition of human TK10 cells at 10^-5 M incubated for 48 hrs by sulforhodamine B assay; details: TK-10, 48 h, read-out: GI
[32] = system: COLO 205; assay: Growth inhibition of human COLO205 cells at 10^-5 M incubated for 48 hrs by sulforhodamine B assay; details: COLO 205, 48 h, read-out: GI
[33] = system: SR; assay: Growth inhibition of human SR cells at 10^-5 M incubated for 48 hrs by sulforhodamine B assay; details: read-out: GI
[34] = system: HCC 2998; assay: Growth inhibition of human HCC2998 cells at 10^-5 M incubated for 48 hrs by sulforhodamine B assay; details: HCC 2998, 48 h, read-out: GI
[35] = system: IGROV-1; assay: Growth inhibition of human IGROV1 cells at 10^-5 M incubated for 48 hrs by sulforhodamine B assay; details: IGROV-1, 48 h, read-out: GI
[36] = system: MCF7; assay: Growth inhibition of human MCF7 cells at 10^-5 M incubated for 48 hrs by sulforhodamine B assay; details: MCF7, 48 h, read-out: GI
[37] = system: DU-145; assay: Growth inhibition of human DU145 cells at 10^-5 M incubated for 48 hrs by sulforhodamine B assay; details: DU-145, 48 h, read-out: GI
[38] = system: EKVX; assay: Growth inhibition of human EKVX cells at 10^-5 M incubated for 48 hrs by sulforhodamine B assay; details: read-out: GI
[39] = system: SW-620; assay: Growth inhibition of human SW620 cells at 10^-5 M incubated for 48 hrs by sulforhodamine B assay; details: SW-620, 48 h, read-out: GI

SMILES | inhibition of growth at 10 µM [1] | inhibition of growth at 10 µM [2] | inhibition of growth at 10 µM [3] | inhibition of growth at 10 µM [4] | inhibition of growth at 10 µM [5] | inhibition of growth at 10 µM [6] | inhibition of growth at 10 µM [7] | inhibition of growth at 10 µM [8] | inhibition of growth at 10 µM [9] | inhibition of growth at 10 µM [10] | inhibition of growth at 10 µM [11] | inhibition of growth at 10 µM [12] | inhibition of growth at 10 µM [13] | inhibition of growth at 10 µM [14] | inhibition of growth at 10 µM [15] | inhibition of growth at 10 µM [16] | inhibition of growth at 10 µM [17] | inhibition of growth at 10 µM [18] | inhibition of growth at 10 µM [19] | inhibition of growth at 10 µM [20] | further results
N=C1Nc2c(sc3ccc(Cl)cc23)C(c2ccccc2O)N1 (configuration not stated) | 6.19% | -5.69% | 18.8% | 12.7% | -6.21% | 21.2% | -10.3% | 4.18% | 2.66% | -22.4% | -12.5% | 2.58% | 22.4% | 3.66% | 8.57% | 9.9% | 17.5% | -4.84% | -10.5% | 4.61% | inhibition of growth at 10 µM [21]: -15.6%; inhibition of growth at 10 µM [22]: 1.39%; inhibition of growth at 10 µM [23]: -2.22%; inhibition of growth at 10 µM [24]: -6.18%; inhibition of growth at 10 µM [25]: -1.61%; inhibition of growth at 10 µM [26]: -1.68%; inhibition of growth at 10 µM [27]: 10.5%; inhibition of growth at 10 µM [28]: 7.92%; inhibition of growth at 10 µM [29]: -7.81%; inhibition of growth at 10 µM [30]: 6.2%; inhibition of growth at 10 µM [31]: 38%; inhibition of growth at 10 µM [32]: -6.79%; inhibition of growth at 10 µM [33]: 10.2%; inhibition of growth at 10 µM [34]: -22.2%; inhibition of growth at 10 µM [35]: 17.4%; inhibition of growth at 10 µM [36]: 13.9%; inhibition of growth at 10 µM [37]: 23.3%; inhibition of growth at 10 µM [38]: 17.6%; inhibition of growth at 10 µM [39]: 1.38%
NNC1=Nc2c(sc3ccc(Cl)cc23)C(c2cccc([N+](=O)[O-])c2)N1 (configuration not stated) | 1.93% | 16.3% | 6.37% | 18.4% | -13.5% | -12.8% | -0.19% | 4.45% | 3.86% | 1.02% | 15.2% | 7.99% | 10.7% | -16.8% | 4.25% | 5.88% | -17.8% | -4.45% | -2.75% | -5% | inhibition of growth at 10 µM [21]: 18.5%; inhibition of growth at 10 µM [22]: -4.43%; inhibition of growth at 10 µM [23]: 13.3%; inhibition of growth at 10 µM [24]: -1.52%; inhibition of growth at 10 µM [25]: -5.19%; inhibition of growth at 10 µM [26]: -1.38%; inhibition of growth at 10 µM [27]: 9.49%; inhibition of growth at 10 µM [28]: -3.64%; inhibition of growth at 10 µM [29]: -3.56%; inhibition of growth at 10 µM [30]: -27.2%; inhibition of growth at 10 µM [31]: -18.2%; inhibition of growth at 10 µM [32]: -1.26%; inhibition of growth at 10 µM [33]: 1.98%; inhibition of growth at 10 µM [34]: -1.26%; inhibition of growth at 10 µM [35]: 23.8%; inhibition of growth at 10 µM [36]: 18.1%; inhibition of growth at 10 µM [37]: -9.18%; inhibition of growth at 10 µM [38]: 16.9%; inhibition of growth at 10 µM [39]: -6.43%
NC(=O)CSC1=Nc2c(sc3ccc(Cl)cc23)C(c2cccc([N+](=O)[O-])c2)N1 (configuration not stated) | -4.2% | 7.36% | 8.24% | 10.4% | -3.66% | -21.6% | -1.31% | 3.97% | 4.8% | 1.64% | 7.5% | 2.9% | 5.27% | -12.1% | 6.2% | 4.62% | -8.76% | -4.42% | 1.5% | 3.6% | inhibition of growth at 10 µM [21]: 19.2%; inhibition of growth at 10 µM [22]: -2.31%; inhibition of growth at 10 µM [23]: 2.53%; inhibition of growth at 10 µM [24]: -3.56%; inhibition of growth at 10 µM [25]: -5.8%; inhibition of growth at 10 µM [26]: -4.8%; inhibition of growth at 10 µM [27]: 4.2%; inhibition of growth at 10 µM [28]: -4.88%; inhibition of growth at 10 µM [29]: -1.2%; inhibition of growth at 10 µM [30]: 20.2%; inhibition of growth at 10 µM [31]: -16.6%; inhibition of growth at 10 µM [32]: -5.21%; inhibition of growth at 10 µM [33]: 4.41%; inhibition of growth at 10 µM [34]: -5.21%; inhibition of growth at 10 µM [35]: 22%; inhibition of growth at 10 µM [36]: 22.4%; inhibition of growth at 10 µM [37]: -14.8%; inhibition of growth at 10 µM [38]: 23.6%; inhibition of growth at 10 µM [39]: -4.82%
